Experimental data reported in patent US20040150788A1, “Antimicrobial lenses, processes to prepare them and methods of their use” (priority 2002, published 2004).

Key:
[1] = cited from earlier work; for Ksp: silver salt, pure water at 25° C. (Table 1); for Ksp In pure H2O at 25° C. / Ksp in pure H2O at 25° C.: CRC Handbook of Chemistry and Physics; for Ksp In pure H2O at 25° C.: 74th edition (Table 4); for Ksp in pure H2O at 25° C.: 74th edition (Table 8)
[2] = Solubility-product constant (Ksp) and molar solubility of metal salts in pure water at 25° C.; details: derived from Ksp (Table 1)

In the case of `[Cl][Ag]` [AgCl, silver chloride], the Ksp [1] is listed as 1.77 × 10^−10.
For `[Ag][I]` [Agl, silver iodide], the “Molar solubility, silver” value [2] is listed as 9.22 nM and the Ksp [1] is listed as 8.51 × 10^−17.
In the case of `[Br][Ag]` [Silver bromide], the “Ksp In pure H2O at 25° C.” value [1] is listed as 5.35 × 10^−13.
For `O=S(=O)([O-])[O-].[Ag+].[Ag+]` [Silver sulfate], the “Ksp In pure H2O at 25° C.” value [1] is given as 1.20 × 10^−5 and the Ksp [1] is given as 1.20 × 10^−5.
For `[O]=[Zn]` [Zinc oxide], the “Ksp in pure H2O at 25° C.” value [1] is listed as 3.87 × 10^−10.
In the case of Copper sulfide, the “Ksp in pure H2O at 25° C.” value [1] is given as 6.00 × 10^−37.
